The results in this text go back to ChEMBL document CHEMBL3739418, “RGD-peptides modifying dexamethasone: to enhance the anti-inflammatory efficacy and limit the risk of osteoporosis” (Medchemcomm, 2015).

Series [1] concerns Mus musculus. As to the kind of experiment: Antiinflammatory activity in xylene-induced ICR mouse edema model assessed as decrease in plasma IL8 level at 25.5 umol/kg, po after 60 mins by microplate reader analysis. The class given is functional, organism-based.
For series [2], the system named is Mus musculus. Put plainly: Toxicity in BALB/C mouse assessed as decrease in dry femur weight at 1.43 umol/kg/day, po administered for 15 days. The class given is organism-based. Particulars: in vivo, 360 h.
Series [3] concerns Mus musculus. As to the kind of experiment: Toxicity in BALB/C mouse assessed as total volumetric bone mineral density at 1.43 umol/kg/day, po administered for 15 days (reference value: 554.3 +/- 17.2 mg/cm3). The series is classed as organism-based. Particulars: in vivo, 360 h.
The test system of the next series is A549. As to the kind of experiment: Downregulation of DNA replication in human A549 cells at 1 uM after 48 hrs by UV-visible spectrophotometric analysis. The series is classed as functional, cell-based.
Series [4] has as its system Mus musculus. As to the kind of experiment: Antiinflammatory activity in ICR mouse assessed as inhibition of xylene-induced edema at 25.5 umol/kg, po administered for 30 mins prior to xylene challenge measured after 2 hrs. The class given is functional, organism-based.
Series [5] can be described thus: Drug metabolism in cytosome of human A549 cells assessed as dexamethasone dimer formation at 1 uM by ESI-MS analysis. The class given is ADME, cell-based, Cytoplasm. Particulars: a549, 1 µM.
The test system of series [6] is Mus musculus. As to the kind of experiment: Antiinflammatory activity in xylene-induced ICR mouse edema model assessed as decrease in plasma TNFalpha level at 25.5 umol/kg, po after 60 mins by microplate reader analysis. The series is classed as functional, organism-based.
Series [7] deals with Mus musculus. As to the kind of experiment: Antiinflammatory activity in po dosed ICR mouse assessed as inhibition of xylene-induced edema administered for 30 mins prior to xylene challenge measured after 2 hrs. The class given is functional, organism-based.
The subject of series [8] is Mus musculus. Put plainly: Toxicity in BALB/C mouse assessed as decrease in femur calcium level at 1.43 umol/kg/day, po administered for 15 days by o-methylphenolphthalein complexing ketone-based assay. The series is classed as organism-based. Particulars: in vivo, 360 h.
Series [9] deals with Mus musculus. Put plainly: Toxicity in BALB/C mouse assessed as decrease in femur phosphor level at 1.43 umol/kg/day, po administered for 15 days by molybdenum blue-based assay. Particulars: in vivo, 360 h. The class given is organism-based.
Series [10] relates to Mus musculus. Put plainly: Toxicity in BALB/C mouse assessed as femur loss at 1.43 umol/kg/day, po administered for 15 days by pQCT analysis. The series is classed as organism-based. The settings on record: in vivo, 360 h.
The test system of series [11] is Mus musculus. As to the kind of experiment: Toxicity in BALB/C mouse assessed as decrease in ash weight at 1.43 umol/kg/day, po administered for 15 days. The series is classed as organism-based. The settings on record: in vivo, 360 h.

The source made the active and inactive calls. The calls are words filed in the database; no cut-off is given here. Residues, ends and D or L forms follow the SMILES beside them. *: point of attachment. Succinyl(O21-dexamethasone) = C[C@@H]1C[C@H]2[C@@H]3CCC4=CC(=O)C=C[C@]4(C)[C@@]3(F)[C@@H](O)C[C@]2(C)[C@@]1(O)C(=O)COC(=O)CCC(=O)*

Take `C[C@@H]1C[C@H]2[C@@H]3CCC4=CC(=O)C=C[C@]4(C)[C@@]3(F)[C@@H](O)C[C@]2(C)[C@@]1(O)C(=O)COC(=O)CCC(=O)N[C@@H](CCCNC(=N)N)C(=O)NCC(=O)N[C@@H](CC(=O)O)C(=O)N[C@@H](Cc1ccccc1)C(=O)O` ({Succinyl(O21-dexamethasone)}-RGDF-OH): the result with Mus musculus [1], in the series on A549 and in the series on Mus musculus [6] was Active. Besides, the Activity result in the series on Mus musculus [2] is given as “Non-toxic”; in the series with Mus musculus [3] it was 555.1 mg/cm3. Also, the inhibition entry in the series with Mus musculus [4] was “Active”. Besides, the Drug metabolism entry in [5] is reported as “metabolite_detected”.

For `C[C@@H]1C[C@H]2[C@@H]3CCC4=CC(=O)C=C[C@]4(C)[C@@]3(F)[C@@H](O)C[C@]2(C)[C@@]1(O)C(=O)COC(=O)CCC(=O)N[C@@H](CCCNC(=N)N)C(=O)NCC(=O)N[C@@H](CC(=O)O)C(=O)N[C@@H](CO)C(=O)O` ({Succinyl(O21-dexamethasone)}-RGDS-OH), the outcome in the series with Mus musculus [1], with A549 and in the series on Mus musculus [6] was Active. Besides, the Activity result in the series with Mus musculus [2] is “Non-toxic”; in the series with Mus musculus [3], 558.5 mg/cm3. In addition, the Drug metabolism result in [5] is on record as “metabolite_detected”. For the same molecule, the inhibition entry in the series on Mus musculus [7] is “Dose-dependent effect”.

As to `CC(C)[C@H](NC(=O)[C@H](CC(=O)O)NC(=O)CNC(=O)[C@H](CCCNC(=N)N)NC(=O)CCC(=O)OCC(=O)[C@@]1(O)[C@H](C)C[C@H]2[C@@H]3CCC4=CC(=O)C=C[C@]4(C)[C@@]3(F)[C@@H](O)C[C@@]21C)C(=O)O` ({Succinyl(O21-dexamethasone)}-RGDV-OH), the result in the series on Mus musculus [1], in the series with A549 and with Mus musculus [6] was Active. Besides, the figures for the Activity result with Mus musculus [2] and with Mus musculus [3] were “Non-toxic” and 540.3 mg/cm3, respectively. In the series on Mus musculus [4], the inhibition entry is “Active”. In [5], the Drug metabolism entry is listed as “metabolite_detected”.

In the case of `C[C@@H]1C[C@H]2[C@@H]3CCC4=CC(=O)C=C[C@]4(C)[C@@]3(F)[C@@H](O)C[C@]2(C)[C@@]1(O)C(=O)CO` [DEXAMETHASONE], the outcome in the series with Mus musculus [1], in the series with A549 and in the series on Mus musculus [6] was Active. The Activity entry in the series on Mus musculus [2] is given as “Toxic”; in the series with Mus musculus [3], 506.3 mg/cm3; in the series with Mus musculus [8], “Toxic”; in the series on Mus musculus [9] it was “Non-toxic”; in the series with Mus musculus [10], “Toxic”; with Mus musculus [11] it was “Toxic”. For the same molecule, the inhibition entry in the series on Mus musculus [4] was “Active”.
